Literature values, collected in patent publication US11737967B2, “Increasing the stability of agents for treating keratin material” (Henkel AG & Co. KGaA, priority 2019, dated 2023).

Settings: 25° C.

Structure (SMILES) | solubility in water
CCN(Cc1cccc(S(=O)(=O)[O-])c1)c1ccc(C(=C2C=CC(=[N+](CC)Cc3cccc(S(=O)(=O)[O-])c3)C=C2)c2ccccc2S(=O)(=O)[O-])cc1.[Na+].[Na+] [Acid Blue 9] | more than 20 % by weight
O=S(=O)([O-])c1ccc(N=Nc2c(O)ccc3ccccc23)cc1.[Na+] [Acid Orange 7, sodium salt of 4-[(2-hydroxy-1-naphthyl)azo]benzene sulphonate] | more than 7 g/L
Nc1cc(S(=O)(=O)[O-])cc2cc(S(=O)(=O)[O-])c(N=Nc3ccccc3)c(O)c12.[Na+].[Na+] [Acid Red 33, diantrium salt of 5-amino-4-hydroxy-3-(phenylazo)-naphthalene-2,7-disulphonate] | 2500 µg/mL
O=C([O-])c1c(Cl)c(Cl)c(Cl)c(Cl)c1-c1c2c(Br)cc(=O)c(Br)c-2oc2c(Br)c(O)cc(Br)c12.O=C([O-])c1c(Cl)c(Cl)c(Cl)c(Cl)c1-c1c2c(Br)cc(=O)c(Br)c-2oc2c(Br)c(O)cc(Br)c12.[Na+].[Na+] [Acid Red 92, disodium salt of 3,4,5,6-tetrachloro-2-(1,4,5,8-tetrabromo-6-hydroxy-3-oxoxanthen-9-yl)benzoic acid] | greater than 10 g/L
O=C([O-])C1=NN(c2ccc(S(=O)(=O)[O-])cc2)C(=O)C1N=Nc1ccc(S(=O)(=O)[O-])cc1.[Na+].[Na+].[Na+] (centres unmarked) [Acid Yellow 23, trisodium salt of 4,5-dihydro-5-oxo-1-(4-sulfophenyl)-4-((4-sulfophenyl)azo)-1H-pyrazole-3-carboxylic acid] | highly soluble
